From ChEMBL document CHEMBL3885881, “DrugMatrix”

Species on record: Rattus norvegicus
Assay: DrugMatrix - Regimen: Daily Repeat
Type: toxicity, organism-based, Sprague-Dawley
Design: regimen Daily Repeat, gender Male, age 6-8 weeks
Details: in vivo; for ABSOLUTE BASOPHIL / ABSOLUTE EOSINOPHIL / ABSOLUTE LYMPHOCYTE / ABSOLUTE MONOCYTE / ABSOLUTE SEGMENTED NEUTROPHIL / BASOPHIL / EOSINOPHIL / ERYTHROCYTE COUNT / HEMATOCRIT / HEMOGLOBIN / LEUKOCYTE COUNT / LYMPHOCYTE / MEAN CORPUSCULAR HEMOGLOBIN / MEAN CORPUSCULAR HEMOGLOBIN CONCENTRATION / MEAN CORPUSCULAR VOLUME / MONOCYTE / NEUTROPHIL / NUCLEATED RED BLOOD CELLS / PLATELET COUNT: tissue Blood; for ALANINE AMINOTRANSFERASE / ALKALINE PHOSPHATASE / ASPARTATE AMINOTRANSFERASE / BLOOD UREA NITROGEN / CARBON DIOXIDE / CHLORIDE / CHOLESTEROL / CREATINE PHOSPHOKINASE / CREATININE / GLUCOSE / LACTATE DEHYDROGENASE / LIPASE / PHOSPHORUS / POTASSIUM / SODIUM / TOTAL BILIRUBIN / TOTAL PROTEIN / URIC ACID / ALBUMIN: tissue Plasma
[1] = iv, 0.06 mg/kg, 72 h, dose level Low, time 3 day, vehicle 100 % SALINE
[2] = iv, 0.6 mg/kg, 72 h, dose level High, time 3 day, vehicle 100 % SALINE
[3] = po, 2500 mg/kg, 72 h, route oral GAVAGE, dose level High, time 3 day, vehicle 100 % WATER
[4] = po, 2500 mg/kg, 120 h, route oral GAVAGE, dose level High, time 5 day, vehicle 100 % WATER

COc1cc2c(c(OC)c1OC)-c1ccc(OC)c(=O)cc1[C@@H](NC(C)=O)CC2 [COLCHICINE]
ABSOLUTE BASOPHIL [1]: 0 CELLS/uL | ABSOLUTE EOSINOPHIL [1]: 27.33 CELLS/uL | ABSOLUTE LYMPHOCYTE [1]: 6156.67 CELLS/uL | ABSOLUTE MONOCYTE [1]: 0 CELLS/uL | ABSOLUTE SEGMENTED NEUTROPHIL [1]: 749.33 CELLS/uL | BASOPHIL [1]: 0% | EOSINOPHIL [1]: 0.33% | ERYTHROCYTE COUNT [1]: 5.17 x10E6/uL | HEMATOCRIT [1]: 32.07% | HEMOGLOBIN [1]: 12.27 G/DL | LEUKOCYTE COUNT [1]: 6.93 x10E3/uL | LYMPHOCYTE [1]: 89% | MEAN CORPUSCULAR HEMOGLOBIN [1]: 23.77 pg | MEAN CORPUSCULAR HEMOGLOBIN CONCENTRATION [1]: 38.27 G/DL | MEAN CORPUSCULAR VOLUME [1]: 62.1 fL | MONOCYTE [1]: 0% | NEUTROPHIL [1]: 10.67% | NUCLEATED RED BLOOD CELLS [1]: 0 /100WBC | PLATELET COUNT [1]: 1043 x10E3/uL | ALANINE AMINOTRANSFERASE [1]: 47.67 u/L | ALKALINE PHOSPHATASE [1]: 415.67 u/L | ASPARTATE AMINOTRANSFERASE [1]: 76.33 u/L | BLOOD UREA NITROGEN [1]: 14 mg/dL | CARBON DIOXIDE [1]: 31.67 mmol/L | CHLORIDE [1]: 96.33 MEQ/L | CHOLESTEROL [1]: 74 mg/dL | CREATINE PHOSPHOKINASE [1]: 201 u/L | CREATININE [1]: 0.18 mg/dL | GLUCOSE [1]: 136.67 mg/dL | LACTATE DEHYDROGENASE [1]: 97 u/L | LIPASE [1]: 8 u/L | PHOSPHORUS [1]: 13.4 mg/dL | POTASSIUM [1]: 6.43 MEQ/L | SODIUM [1]: 144.43 MEQ/L | TOTAL BILIRUBIN [1]: 0.17 mg/dL | TOTAL PROTEIN [1]: 6.37 G/DL | URIC ACID [1]: 1.13 mg/dL | ABSOLUTE BASOPHIL [2]: 0 CELLS/uL | ABSOLUTE EOSINOPHIL [2]: 18.33 CELLS/uL | ABSOLUTE LYMPHOCYTE [2]: 4412.33 CELLS/uL | ABSOLUTE MONOCYTE [2]: 18.33 CELLS/uL | ABSOLUTE SEGMENTED NEUTROPHIL [2]: 317.67 CELLS/uL | BASOPHIL [2]: 0% | EOSINOPHIL [2]: 0.33% | ERYTHROCYTE COUNT [2]: 4.91 x10E6/uL | HEMATOCRIT [2]: 30.9% | HEMOGLOBIN [2]: 11.7 G/DL | LEUKOCYTE COUNT [2]: 4.77 x10E3/uL | LYMPHOCYTE [2]: 93% | MEAN CORPUSCULAR HEMOGLOBIN [2]: 23.87 pg | MEAN CORPUSCULAR HEMOGLOBIN CONCENTRATION [2]: 37.87 G/DL | MEAN CORPUSCULAR VOLUME [2]: 62.97 fL | MONOCYTE [2]: 0.33% | NEUTROPHIL [2]: 6.33% | NUCLEATED RED BLOOD CELLS [2]: 0.33 /100WBC | PLATELET COUNT [2]: 987.33 x10E3/uL | ALANINE AMINOTRANSFERASE [2]: 103.67 u/L | ALKALINE PHOSPHATASE [2]: 371.33 u/L | ASPARTATE AMINOTRANSFERASE [2]: 526.67 u/L | BLOOD UREA NITROGEN [2]: 14.33 mg/dL | CARBON DIOXIDE [2]: 28.67 mmol/L | CHLORIDE [2]: 97 MEQ/L | CHOLESTEROL [2]: 115.67 mg/dL | CREATINE PHOSPHOKINASE [2]: 183.67 u/L | CREATININE [2]: 0.17 mg/dL | GLUCOSE [2]: 165.67 mg/dL | LACTATE DEHYDROGENASE [2]: 137.33 u/L | LIPASE [2]: 9 u/L | PHOSPHORUS [2]: 11.9 mg/dL | POTASSIUM [2]: 6.74 MEQ/L | SODIUM [2]: 144.13 MEQ/L | TOTAL BILIRUBIN [2]: 0.13 mg/dL | TOTAL PROTEIN [2]: 6.3 G/DL | URIC ACID [2]: 1.67 mg/dL

CCN(CC)CCOC(=O)c1ccc(N)cc1 [PROCAINE]
ABSOLUTE BASOPHIL [3]: 0 CELLS/uL | ABSOLUTE EOSINOPHIL [3]: 0 CELLS/uL | ABSOLUTE LYMPHOCYTE [3]: 12849.67 CELLS/uL | ABSOLUTE MONOCYTE [3]: 127.33 CELLS/uL | ABSOLUTE SEGMENTED NEUTROPHIL [3]: 789.67 CELLS/uL | BASOPHIL [3]: 0% | EOSINOPHIL [3]: 0% | ERYTHROCYTE COUNT [3]: 5.53 x10E6/uL | HEMATOCRIT [3]: 34.97% | HEMOGLOBIN [3]: 13.83 G/DL | LEUKOCYTE COUNT [3]: 13.77 x10E3/uL | LYMPHOCYTE [3]: 93.33% | MEAN CORPUSCULAR HEMOGLOBIN [3]: 24.97 pg | MEAN CORPUSCULAR HEMOGLOBIN CONCENTRATION [3]: 39.63 G/DL | MEAN CORPUSCULAR VOLUME [3]: 63.1 fL | MONOCYTE [3]: 1% | NEUTROPHIL [3]: 5.67% | NUCLEATED RED BLOOD CELLS [3]: 0 /100WBC | PLATELET COUNT [3]: 1276.67 x10E3/uL | ALANINE AMINOTRANSFERASE [3]: 52.33 u/L | ALBUMIN [3]: 4.3 G/DL | ALKALINE PHOSPHATASE [3]: 353.67 u/L | ASPARTATE AMINOTRANSFERASE [3]: 121.67 u/L | BLOOD UREA NITROGEN [3]: 13.67 mg/dL | CARBON DIOXIDE [3]: 25.33 mmol/L | CHLORIDE [3]: 103.33 MEQ/L | CHOLESTEROL [3]: 42.33 mg/dL | CREATINE PHOSPHOKINASE [3]: 550.67 u/L | CREATININE [3]: 0.21 mg/dL | GLUCOSE [3]: 173 mg/dL | LACTATE DEHYDROGENASE [3]: 675.33 u/L | LIPASE [3]: 9 u/L | PHOSPHORUS [3]: 14.53 mg/dL | POTASSIUM [3]: 7.06 MEQ/L | SODIUM [3]: 146.03 MEQ/L | TOTAL BILIRUBIN [3]: 0.17 mg/dL | TOTAL PROTEIN [3]: 5.9 G/DL | URIC ACID [3]: 2.57 mg/dL | ABSOLUTE BASOPHIL [4]: 0 CELLS/uL | ABSOLUTE EOSINOPHIL [4]: 0 CELLS/uL | ABSOLUTE LYMPHOCYTE [4]: 14457.33 CELLS/uL | ABSOLUTE MONOCYTE [4]: 61 CELLS/uL | ABSOLUTE SEGMENTED NEUTROPHIL [4]: 915 CELLS/uL | BASOPHIL [4]: 0% | EOSINOPHIL [4]: 0% | ERYTHROCYTE COUNT [4]: 6.15 x10E6/uL | HEMATOCRIT [4]: 37.43% | HEMOGLOBIN [4]: 14.7 G/DL | LEUKOCYTE COUNT [4]: 15.43 x10E3/uL | LYMPHOCYTE [4]: 93.33% | MEAN CORPUSCULAR HEMOGLOBIN [4]: 23.93 pg | MEAN CORPUSCULAR HEMOGLOBIN CONCENTRATION [4]: 39.3 G/DL | MEAN CORPUSCULAR VOLUME [4]: 60.87 fL | MONOCYTE [4]: 0.33% | NEUTROPHIL [4]: 6.33% | NUCLEATED RED BLOOD CELLS [4]: 0 /100WBC | PLATELET COUNT [4]: 1379 x10E3/uL | ALANINE AMINOTRANSFERASE [4]: 40 u/L | ALBUMIN [4]: 4.73 G/DL | ALKALINE PHOSPHATASE [4]: 323.33 u/L | ASPARTATE AMINOTRANSFERASE [4]: 94 u/L | BLOOD UREA NITROGEN [4]: 17 mg/dL | CARBON DIOXIDE [4]: 26 mmol/L | CHLORIDE [4]: 101.67 MEQ/L | CHOLESTEROL [4]: 33.67 mg/dL | CREATINE PHOSPHOKINASE [4]: 281 u/L | CREATININE [4]: 0.24 mg/dL | GLUCOSE [4]: 166.67 mg/dL | LACTATE DEHYDROGENASE [4]: 198.33 u/L | LIPASE [4]: 9.67 u/L | PHOSPHORUS [4]: 12.67 mg/dL | POTASSIUM [4]: 7.55 MEQ/L | SODIUM [4]: 143.33 MEQ/L | TOTAL BILIRUBIN [4]: 0.2 mg/dL | TOTAL PROTEIN [4]: 6.67 G/DL | URIC ACID [4]: 2 mg/dL
